{
  "source": "patent US8178324B2",
  "about": "“Deracemisation of amines” (Ingenza Limited, priority 2002, dated 2012)",
  "key": {"[1]": {"biological_target": "T1, N336S mutant A. niger monoamine oxidase (Aspergillus niger, UniProt P46882, A300V/K348M/L304V/N336S/R450G)", "T1 construct": "made in house; host or cells: E. coli BL21(DE3), pET16b", "T1 sequence (P46882 whole entry A300V/L304V/N336S/K348M/R450G)": "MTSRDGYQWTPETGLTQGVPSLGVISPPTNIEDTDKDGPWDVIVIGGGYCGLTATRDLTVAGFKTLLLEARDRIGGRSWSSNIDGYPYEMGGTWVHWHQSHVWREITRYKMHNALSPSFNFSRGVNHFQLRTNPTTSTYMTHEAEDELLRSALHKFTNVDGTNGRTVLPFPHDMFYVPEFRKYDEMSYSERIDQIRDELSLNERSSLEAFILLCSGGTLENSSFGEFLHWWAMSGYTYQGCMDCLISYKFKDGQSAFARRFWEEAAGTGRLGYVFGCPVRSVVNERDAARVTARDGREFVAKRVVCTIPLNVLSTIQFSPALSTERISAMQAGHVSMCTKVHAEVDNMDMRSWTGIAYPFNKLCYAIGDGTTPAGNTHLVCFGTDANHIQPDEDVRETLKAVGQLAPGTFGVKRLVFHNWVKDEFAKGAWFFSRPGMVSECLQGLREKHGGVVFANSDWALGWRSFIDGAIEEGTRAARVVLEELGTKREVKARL", "type": "biochemical", "set-up": "key to Relative Rate (symbol): *: No measurable rate", "settings": "for Relative Rate: relative to (S)-α Methylbenzylamine = 1", "experimental": "(§1) 5 ml phosphate buffer (1 M, pH 7.6)\n(§2) 500 μl 2,4,6-tribromo-3-hydroxybenzoic acid (2% in DMSO)\n(§3) 37.5 μl 4-aminoantipyrine (1.5 M) • 30 μl amine substrate (final concentration 0.015-5 mM) • 44.4 ml water\n(§4) Assay Conditions: • 990 μl assay mixture • 5 μl horse radish peroxidase (1 mg·ml^−1) • 10 μl enzyme\n(§5) The spectrophotometer was blanked against assay mixture and HRP. Enzyme was added and the absorbance at 500 nm measured at 3 s intervals for a 10 minute period.\nThe activity of the mutant enzyme described above was studied in relation to a variety of amine substrates. […]"}, "[2]": {"biological_target": "T2, wild-type A. niger MAO-N enzyme (Aspergillus niger, UniProt P46882, A300V/K348M/L304V/R450G)", "T2 construct": "made in house; host or cells: E. coli BL21(DE3), pET16b", "T2 sequence (P46882 whole entry A300V/L304V/K348M/R450G)": "as the sequence (P46882 whole entry A300V/L304V/N336S/K348M/R450G) above, with S336N counted along it", "assay": "Colorimetric hydrogen peroxide (HRP/TBHBA/4-aminoantipyrine) amine oxidase assay, purified wild-type enzyme", "type": "biochemical", "settings": "for kcat, Wild-type Enzyme: purified wild-type enzyme, active enzyme from FAD absorbance at 458 nm", "experimental": "(§6) The wild-type enzyme was also purified by the same protocol and the two enzymes compared for substrate specificity and enantioselectivity.\nas §1, §2, §3, §4, §5\n(§7) The Km values were calculated using ‘KaleidaGraph for Windows’ (Synergy Software). For calculation of the kcat, the active enzyme concentration was determined by estimating the FAD content from the absorbance at 458 nm using an extinction coefficient of 11 mM^−1 cm^−1 (see ref 12)."}, "[3]": {"biological_target": "Type II monoamine oxidase from Aspergillus niger (MAO-N) (Aspergillus niger, UniProt P46882, A300V/K348M/L304V/R450G)", "sequence (P46882 whole entry A300V/L304V/K348M/R450G)": "as the sequence (P46882 whole entry A300V/L304V/N336S/K348M/R450G) above, with S336N counted along it", "settings": "literature refs 10-12; cited from earlier work"}, "[4]": {"biological_target": "T3, mutant A. niger monoamine oxidase (N336S) (Aspergillus niger, UniProt P46882, A300V/K348M/L304V/N336S/R450G)", "T3 construct": "made in house; host or cells: E. coli BL21(DE3), pET16b", "T3 sequence (P46882 whole entry A300V/L304V/N336S/K348M/R450G)": "as the sequence (P46882 whole entry A300V/L304V/N336S/K348M/R450G) above", "assay": "Colorimetric hydrogen peroxide amine oxidase assay, purified mutant enzyme (N336S)", "type": "biochemical", "experimental": "as §6\nThe mutated gene was also sequenced and the sequence is shown in SEQ ID NO: 2. There was a single amino acid change from the wild-type enzyme with serine replacing asparagine at position 336.\nLB medium (6×300 ml) containing ampicillin (100 μg·ml^−1) in 1 L baffled flasks was inoculated with a single colony of monoamine oxidase mutant from an LB agar plate. Cultures were incubated at 30° C. for 22 hours (OD600˜3.6) then harvested and washed with phosphate buffer (50 mM, pH 8) to yield a yellow-brown pellet (11.2 g).\nThe pellet was resuspended in Tris/HCl buffer (25 mM, pH 7.8, 30 ml) and sonicated on ice (30 s on, 30 s off for 10 minutes). The suspension was then centrifuged (20,000 rpm, 4° C.) until clear supernatant was obtained and the supernatant dialysed against Tris/HCl buffer (25 mM, pH 7.8). The cell free extract was filtered through 0.45 μm sterile membrane and chromatographed on a QSepharose anion exchange column. Fractions were assayed using colorimetric hydrogen peroxide based assay and active fractions were stored at −80° C. The active fraction has a protein content of 1 mg·ml^−1, and a specific activity of 0.193 U·mg^−1 against amylamine.\nas §1, §2, §3, §4, §5, §7"}, "[5]": {"biological_target": "T4, mutant amine oxidase (N336S) (Aspergillus niger, UniProt P46882, A300V/K348M/L304V/N336S/R450G)", "T4 construct": "made in house; host or cells: E. coli BL21(DE3), pET16b", "T4 sequence (P46882 whole entry A300V/L304V/N336S/K348M/R450G)": "as above", "assay": "Chiral HPLC (Chiralcel CrownPak CR+) check of oxidation by the mutant", "type": "biochemical", "settings": "after 24 h", "experimental": "The data reveal that the activity of the mutant amine oxidase towards L-AMBA (kcat=8.0 min-1) is 47 fold higher than the wild-type (kcat=0.17 min-1). Moreover the selectivity of the mutant for the L-enantiomer versus D-AMBA (ca. 100:1) has also been increased relative to the wild type enzyme (ca. 17:1). Thus the outcome of the in vitro evolution experiments has been to simultaneously improve both the enantioselectivity and catalytic activity of the enzyme. For comparison, the activity towards the best substrate for the wild-type enzyme, namely amylamine, and also benzylamine, is presented."}, "MAO mutant N336S": {"biological_target": "T5, MAO mutant N336S (Aspergillus niger, UniProt P46882, A300V/K348M/L304V/N336S/R450G)", "T5 construct": "made in house; host or cells: E. coli BL21(DE3), pET16b", "T5 sequence (P46882 whole entry A300V/L304V/N336S/K348M/R450G)": "as above", "assay": "Stereoinversion reaction with MAO mutant N336S and ammonia-borane, HPLC monitoring", "type": "biochemical", "settings": "ammonia-borane, 30° C., 24 hours", "experimental": "More Specifically, MAO mutant N336S (100 μl of 0.193 U·ml^−1=0.02 U) was added to a solution of L-AMBA (0.13 μl, final concentration=0.4 mM) and ammonia-borane complex (10 μl of 4M solution, final concentration=80 mM, 200 eq) in phosphate buffer (400 μl, 20 mM, pH8). A 10 μl aliquot was diluted in 990 μl perchloric acid, pH 1.5 and analysed by HPLC. The reaction mixture was incubated at 30° C. and the reaction monitored by HPLC at regular intervals until no further reaction was observed.\nAnalytical conditions: Column=Chiralcel CrownPak CR+ • Mobile phase=100% perchloric acid, pH 1.5 • Flow rate=0.8 ml·min^−1 • Detection=200 nm • Temperature=25° C. • r.t. (L-AMBA)=12.8 min • r.t. (D-AMBA)=16.5 min"}},
  "note": "Entries after “also recorded” stand apart in the source; their conditions may differ. Where two headings read alike, the source gives them in different places.",
  "data": [
    {"smiles": "CC(NC(C)c1ccccc1)c1ccccc1", "note": "(stereo not drawn) [Bis(α-methyl)benzylamine]", "values": [
      {"measurement": "Relative Rate (symbol)", "setting": "[1]", "value": "*"}
    ]},
    {"smiles": "C[C@H](N)C(C)(C)C", "note": "[(S)-3-3-Dimethyl-2-butylamine]", "values": [
      {"measurement": "Relative Rate", "setting": "[1]", "value": 1.4}
    ]},
    {"smiles": "C[C@@H](N)c1ccc([N+](=O)[O-])cc1", "note": "[(R)-α-Methyl-4-nitrobenzylamine]", "values": [
      {"measurement": "Relative Rate", "setting": "[1]", "value": 0.06}
    ]},
    {"smiles": "C[C@@H](N)C(C)(C)C", "note": "[(R)-3-3-Dimethyl-2-butylamine]", "values": [
      {"measurement": "Relative Rate (symbol)", "setting": "[1]", "value": "*"}
    ]},
    {"smiles": "CC(C)[C@@H](C)N", "note": "[(R)-3-Methyl-2-butylamine]", "values": [
      {"measurement": "Relative Rate (symbol)", "setting": "[1]", "value": "*"}
    ]},
    {"smiles": "COc1ccc([C@@H](C)N)cc1", "note": "[(R)-1-4-Methoxyphenylethylamine]", "values": [
      {"measurement": "Relative Rate", "setting": "[1]", "value": 0.13}
    ]},
    {"smiles": "NCc1ccccc1", "note": "[benzylamine]", "values": [
      {"measurement": "kcat, Wild-type Enzyme", "setting": "[2]", "value": 6.18, "unit": "s⁻¹"},
      {"measurement": "reported activity of MAO-N", "setting": "[3]", "value": "active, albeit at a lower rate"},
      {"measurement": "kcat, Mutant Enzyme", "setting": "[4]; purified N336S mutant", "value": 3.27, "unit": "s⁻¹"}
    ]},
    {"smiles": "CCCCN", "note": "[butylamine]", "values": [
      {"measurement": "reported activity of MAO-N", "setting": "[3]", "value": "high activity"}
    ]},
    {"smiles": "C[C@@H](N)c1ccc(Br)cc1", "note": "[(R)-4-Bromo-α-phenylethylamine]", "values": [
      {"measurement": "Relative Rate (symbol)", "setting": "[1]", "value": "*"}
    ]},
    {"smiles": "CCCCCN", "note": "[amylamine]", "values": [
      {"measurement": "kcat, Wild-type Enzyme", "setting": "[2]", "value": 16.67, "unit": "s⁻¹"},
      {"measurement": "Relative Rate", "setting": "[1]", "value": 25.2},
      {"measurement": "reported activity of MAO-N", "setting": "[3]", "value": "high activity"}
    ]},
    {"smiles": "CC(C)[C@H](C)N", "note": "[(S)-3-Methyl-2-butylamine]", "values": [
      {"measurement": "Relative Rate", "setting": "[1]", "value": 5.4}
    ]},
    {"smiles": "CC1CCCCC1N", "note": "(stereo not drawn) [2-Methylcyclohexylamine]", "values": [
      {"measurement": "Relative Rate", "setting": "[1]", "value": 0.43}
    ]},
    {"smiles": "CC(C)CC(C)N", "note": "(stereo not drawn) [1,3-Dimethylbutylamine]", "values": [
      {"measurement": "Relative Rate", "setting": "[1]", "value": 1.8}
    ]},
    {"smiles": "CC(N)c1ccccc1", "note": "(racemic) [(rac)-α Methylbenzylamine]", "values": [
      {"measurement": "Relative Rate (symbol)", "setting": "[1]", "value": "*"}
    ]},
    {"smiles": "CCCCCCN", "note": "[Hexylamine]", "values": [
      {"measurement": "Relative Rate", "setting": "[1]", "value": 18.6}
    ]},
    {"smiles": "Cc1ccc([C@H](C)N)cc1", "values": [
      {"measurement": "Relative Rate", "setting": "[1]", "value": 0.28}
    ]},
    {"smiles": "Cc1ccc([C@@H](C)N)cc1", "values": [
      {"measurement": "Relative Rate (symbol)", "setting": "[1]", "value": "*"}
    ]},
    {"smiles": "CC(N)c1ccc(Br)cc1", "note": "(racemic) [(rac)-4-Bromo-α-phenylethylamine]", "values": [
      {"measurement": "Relative Rate (symbol)", "setting": "[1]", "value": "*"}
    ]},
    {"smiles": "CCCCCCCN", "note": "[N-heptylamine]", "values": [
      {"measurement": "Relative Rate", "setting": "[1]", "value": 12.1}
    ]},
    {"smiles": "COc1ccc([C@H](C)N)cc1", "note": "[(S)-1-4-Methoxyphenylethylamine]", "values": [
      {"measurement": "Relative Rate", "setting": "[1]", "value": 0.81}
    ]},
    {"smiles": "C[C@H](N)c1ccc([N+](=O)[O-])cc1", "note": "[(S)-α-Methyl-4-nitrobenzylamine]", "values": [
      {"measurement": "Relative Rate", "setting": "[1]", "value": 0.91}
    ]},
    {"smiles": "C[C@H](N)c1ccc(Br)cc1", "note": "[(S)-4-Bromo-α-phenylethylamine]", "values": [
      {"measurement": "Relative Rate", "setting": "[1]", "value": 0.24}
    ]},
    {"smiles": "CC(N)c1ccccc1", "note": "[D-AMBA, α-methylbenzylamine]", "values": [
      {"measurement": "activity of the wild-type A. niger MAO-N enzyme", "setting": "[2]; listed as D-enantiomer", "value": "even slower oxidation"},
      {"measurement": "kcat, Wild-type Enzyme", "setting": "[2]", "value": 0.00017, "unit": "s⁻¹"},
      {"measurement": "oxidation by the mutant seen by chiral HPLC", "setting": "[5]", "value": "no detectable conversion"},
      {"measurement": "conversion under stereoinversion conditions", "setting": "MAO mutant N336S", "value": "no conversion; also recorded: no reaction was observed"},
      {"measurement": "Relative Rate (symbol)", "setting": "[1]", "value": "*"},
      {"measurement": "kcat, Mutant Enzyme", "setting": "[4]; purified N336S mutant", "value": 0.0013, "unit": "s⁻¹"}
    ]},
    {"smiles": "CC(N)c1ccccc1", "note": "[L-AMBA, L-α-methylbenzylamine]", "values": [
      {"measurement": "activity of the wild-type A. niger MAO-N enzyme", "setting": "[2]", "value": "very low, but measurable activity"},
      {"measurement": "kcat, Wild-type Enzyme", "setting": "[2]", "value": 0.00283, "unit": "s⁻¹"},
      {"measurement": "oxidation by the mutant seen by chiral HPLC", "setting": "[5]", "value": "complete oxidation"},
      {"measurement": "Relative Rate", "setting": "[1]", "value": 1},
      {"measurement": "activity (kcat) of the mutant relative to the wild-type", "setting": "[4]; mutant kcat versus wild-type kcat", "value": 47, "unit": "fold"},
      {"measurement": "Km", "setting": "[4]; purified N336S mutant", "value": 400, "unit": "µM"},
      {"measurement": "kcat, Mutant Enzyme", "setting": "[4]; purified N336S mutant", "value": 0.133, "unit": "s⁻¹"}
    ]}
  ]
}
